Where a SMILES comes first, the peptide text is derived from it. Bridges are numbered along the chain shown (N, C = ends).
Target: T1, rGHBP (Rattus norvegicus, UniProt P16310)
T1 construct: 1–48 of GHBP; The 3′ oligo used for this reaction encoded the mutation L43R (CTG→AGA); The second PCR reaction amplified the DNA encoding amino acids 38–260; 6xHis; made in house
T1 sequence (P16310 19-278 isoform P16310-2): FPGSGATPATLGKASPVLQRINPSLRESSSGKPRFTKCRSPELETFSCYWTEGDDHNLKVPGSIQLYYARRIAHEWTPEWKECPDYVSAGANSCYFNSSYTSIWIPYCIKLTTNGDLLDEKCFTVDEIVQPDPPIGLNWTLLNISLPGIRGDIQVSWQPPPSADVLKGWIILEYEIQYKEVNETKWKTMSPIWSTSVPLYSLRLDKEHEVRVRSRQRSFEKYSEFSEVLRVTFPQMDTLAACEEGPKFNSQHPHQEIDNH
Experiment: Time-resolved fluorometric detection (TRFD) of specific bLigand binding to rGHBP and its competition
Settings: TRFD
Procedure: For this invention, saEu forms a ternary complex with bP and rGHBP (i.e., the rGHBP:bP:saEu complex). As described herein, the TRFD assay is performed using biotinylated GH (bGH) as bLigand. Biotinylated H5-mutant peptides bP#447 (SEQ ID NO:11) and bP#418 (SEQ ID NO:12) are also used as bLigand (see below). The TRFD assay described herein faithfully reports the competition of ligand binding to the active site of rGHR. To perform the TRFD assays, soluble rGHBP is attached to the surface of microtiter wells, then incubated with bP. Unbound bP is than washed away and (sa)Eu is added to complex with receptor bound bP. The rGHBP:bP bound (sa)Eu is then converted into its highly fluorescent state and detected by TRFD.
Wells were coated with rGHBP(100 ng/well) overnight as described. ED50 and IC50 were calculated from analysis of specific bLigand binding to rGHBP. Competitors were added 1 hr prior to addition of bLigand as described.
rGHBP (50–200 μg/ml in 50 mM NaHCO3) was coated onto low-fluorescence MaxiSorp (Nunc) plates (100 μl/well) overnight at 4° C. The plates were blocked with PBS containing 2% non-fat milk and 0.05% BSA for 2 hr at room temperature, followed by three PBS washes. For competitions, serial dilutions of unlabelled growth hormone (0.1 nM-100 nM) or MAb 2C3 (0.67–67 nM) were added to the plates (100 μl/well) and incubated at room temperature for 1–2 hr. Biotinylated peptide or biotinylated GH (10× concentrations) were incubated in blocking buffer for 30 min to decrease non-specific binding. Ten microliters of the 10× concentrated material was added to the plates and incubated at room temperature for 1 hr to overnight.
The plates were then washed five times with Tris-buffered saline (pH 7.5) containing 0.1% Tween-20 (TTBS). To each well, 100 μl of europium-labeled streptavidin in DELFIA assay buffer (100 mM Tris-HCl, pH 7.8; 150 mM NaCl; 0.5% BSA; 0.05% bovine Ig; 0.05% NaN3; 0.01% Tween-20) was added and incubated for 1.5 hr at room temperature. The plates were then washed five times with TTBS and tapped dry. Subsequently, 100 μl of DELFIA enhancement solution (100 mM acetone-potassium hydrogen phthalate, pH 3.2; 15 mM 2-naphtyltrifluoroacetate; […] tri(n-octyl)-phosphine oxide; 0.1% Triton X-100) was added to each well, and the plates were shaken for 10 min at room temperature. Fluorescence of each sample well was measured at 615 nm using a DELFIA 1234 fluorometer (EG&G Wallac). General procedure and references as described by Wallac are available in “Lanthanide labeling for time-resolved fluorometry”: Wallac publication 1244–1126-03.

Compound: CC(C)C[C@@H]1NC(=O)[C@H](CO)NC(=O)[C@H](CCC(N)=O)NC(=O)[C@@H](NC(=O)[C@H](CC(C)C)NC(=O)[C@H](CC(=O)O)NC(=O)[C@H](CCCCN)NC(=O)[C@H](Cc2ccc(O)cc2)NC(=O)[C@@H](N)CC(=O)O)CSSC[C@@H](C(=O)N[C@@H](C)C(=O)N[C@@H](CCCCN)C(=O)N[C@@H](CCCCN)C(=O)O)NC(=O)[C@H](Cc2c[nH]c3ccccc23)NC(=O)CNC(=O)[C@H](C)NC(=O)[C@H](CC(C)C)NC(=O)[C@H](Cc2c[nH]c3ccccc23)NC(=O)CNC(=O)[C@@H]2CCCN2C(=O)[C@H](Cc2ccc(O)cc2)NC(=O)[C@H]([C@@H](C)O)NC(=O)[C@H](C(C)C)NC(=O)CNC1=O [H5] (H-DYKDLCQSLGVTYPGWLAGWCAKK-OH; disulfide 6-21; N-terminus and C-terminus assumed)
- saturation of receptors: could not be saturated

Source: patent publication US7148193B2, “Compounds that bind to growth hormone receptor” (Antyra, Inc., priority 1997, dated 2006)
